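Dose response: 5 concentrations. Exposure: 48 h. Format: 96-well plates. Endpoint: linear interpolation; highest concentration if not reached. Definition used: TGI = concentration required for complete inhibition of growth.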
Key:
Assay in all cases: NCI-60 cell line screen, 48 h
RPMI-8226 leukemia = system: RPMI-8226 leukemia
LOX IMVI melanoma = system: LOX IMVI melanoma
SNB-75 CNS = system: SNB-75 CNS
OVCAR-4 ovarian = system: OVCAR-4 ovarian
SF-295 CNS = system: SF-295 CNS
HCT-15 colon = system: HCT-15 colon
OVCAR-3 ovarian = system: OVCAR-3 ovarian
COLO 205 colon = system: COLO 205 colon
UACC-62 melanoma = system: UACC-62 melanoma
K-562 leukemia = system: K-562 leukemia
HOP-92 NSCLC = system: HOP-92 NSCLC
HOP-62 NSCLC = system: HOP-62 NSCLC
SN12C renal = system: SN12C renal
HCT-116 colon = system: HCT-116 colon
M14 melanoma = system: M14 melanoma
NCI-H522 lung = system: NCI-H522 lung
CCRF-CEM leukemia = system: CCRF-CEM leukemia
SF-268 CNS = system: SF-268 CNS
SR leukemia = system: SR leukemia
KM20L2 colon = system: KM20L2 colon
HT29 colon = system: HT29 colon
OVCAR-8 ovarian = system: OVCAR-8 ovarian
DLD-1 colon = system: DLD-1 colon
LXFL 529 NSCLC = system: LXFL 529 NSCLC
NCI-H226 lung = system: NCI-H226 lung
ACHN renal = system: ACHN renal
NCI-H460 lung = system: NCI-H460 lung
EKVX NSCLC = system: EKVX NSCLC
TK-10 renal = system: TK-10 renal
SNB-78 CNS = system: SNB-78 CNS
UACC-257 melanoma = system: UACC-257 melanoma
HL-60(TB) leukemia = system: HL-60(TB) leukemia
SNB-19 CNS = system: SNB-19 CNS
CAKI-1 renal = system: CAKI-1 renal
DMS 114 small cell lung = system: DMS 114 small cell lung
RXF 393 renal = system: RXF 393 renal
M19-MEL melanoma = system: M19-MEL melanoma
KM12 colon = system: KM12 colon
MALME-3M melanoma = system: MALME-3M melanoma
IGROV1 ovarian = system: IGROV1 ovarian
MOLT-4 leukemia = system: MOLT-4 leukemia
SK-OV-3 ovarian = system: SK-OV-3 ovarian
A549 NSCLC = system: A549 NSCLC
UO-31 renal = system: UO-31 renal
SK-MEL-28 melanoma = system: SK-MEL-28 melanoma
HOP-18 NSCLC = system: HOP-18 NSCLC
U251 CNS = system: U251 CNS
HCC-2998 colon = system: HCC-2998 colon
NCI-H23 lung = system: NCI-H23 lung
XF 498 CNS = system: XF 498 CNS
SW-620 colon = system: SW-620 colon
A498 renal = system: A498 renal
786-0 renal = system: 786-0 renal
DMS 273 small cell lung = system: DMS 273 small cell lung
OVCAR-5 ovarian = system: OVCAR-5 ovarian
RXF-631 renal = system: RXF-631 renal

**Q.** What does the source list for `O=C(Nc1ccc(Br)cc1)C(=O)C(C(=O)c1ccc(Cl)c(Cl)c1)C1OC(=O)c2ccccc21` (stereo unspecified)?
**A.** TGI (RPMI-8226 leukemia): > 100 µM; TGI (LOX IMVI melanoma): 47 µM; TGI (SNB-75 CNS): 65.9 µM; TGI (OVCAR-4 ovarian): 50.5 µM; TGI (SF-295 CNS): 65.3 µM; TGI (HCT-15 colon): 53.7 µM; TGI (OVCAR-3 ovarian): 67.3 µM; TGI (COLO 205 colon): 34.8 µM; TGI (UACC-62 melanoma): 26.4 µM; TGI (K-562 leukemia): > 100 µM; TGI (HOP-92 NSCLC): 58.4 µM; TGI (HOP-62 NSCLC): 32.5 µM; TGI (SN12C renal): 68.3 µM; TGI (HCT-116 colon): 25.9 µM; TGI (M14 melanoma): 31.9 µM; TGI (NCI-H522 lung): 47.9 µM; TGI (CCRF-CEM leukemia): > 100 µM; TGI (SF-268 CNS): 21.4 µM; TGI (SR leukemia): > 100 µM; TGI (KM20L2 colon): > 100 µM; TGI (HT29 colon): 45 µM; TGI (OVCAR-8 ovarian): 32.3 µM; TGI (DLD-1 colon): 39.6 µM; TGI (LXFL 529 NSCLC): 23.2 µM; TGI (NCI-H226 lung): 20.6 µM; TGI (ACHN renal): 35.5 µM; TGI (NCI-H460 lung): 38.2 µM; TGI (EKVX NSCLC): > 100 µM; TGI (TK-10 renal): 51.6 µM; TGI (SNB-78 CNS): > 100 µM; TGI (UACC-257 melanoma): 38.9 µM; TGI (HL-60(TB) leukemia): > 100 µM; TGI (SNB-19 CNS): 97.8 µM; TGI (CAKI-1 renal): 51.3 µM; TGI (DMS 114 small cell lung): 28.6 µM; TGI (RXF 393 renal): 17.9 µM; TGI (M19-MEL melanoma): 31.1 µM; TGI (KM12 colon): 31.8 µM; TGI (MALME-3M melanoma): 24.1 µM; TGI (IGROV1 ovarian): 42.8 µM; TGI (MOLT-4 leukemia): > 100 µM; TGI (SK-OV-3 ovarian): > 100 µM; TGI (A549 NSCLC): 46 µM; TGI (UO-31 renal): 43.2 µM; TGI (SK-MEL-28 melanoma): 29.2 µM; TGI (HOP-18 NSCLC): 77 µM; TGI (U251 CNS): 22.8 µM; TGI (HCC-2998 colon): 29.2 µM; TGI (NCI-H23 lung): 29.3 µM; TGI (XF 498 CNS): 96.2 µM; TGI (SW-620 colon): 38.4 µM; TGI (A498 renal): 33.9 µM; TGI (786-0 renal): 30.9 µM; TGI (DMS 273 small cell lung): 60 µM; TGI (OVCAR-5 ovarian): 52.3 µM

**Q.** What does the source list for `COc1ccccc1-c1csc(CCC(N)C(=O)O)n1` (stereo unspecified)?
**A.** TGI (SF-295 CNS): > 100 µM; TGI (RXF-631 renal): > 100 µM; TGI (UACC-62 melanoma): > 100 µM; TGI (HOP-92 NSCLC): > 100 µM; TGI (HOP-62 NSCLC): > 100 µM; TGI (HCT-116 colon): > 100 µM; TGI (M14 melanoma): > 100 µM; TGI (NCI-H522 lung): > 100 µM; TGI (CCRF-CEM leukemia): > 100 µM; TGI (SR leukemia): > 100 µM; TGI (KM20L2 colon): > 100 µM; TGI (HT29 colon): > 100 µM; TGI (OVCAR-8 ovarian): > 100 µM; TGI (ACHN renal): > 100 µM; TGI (NCI-H460 lung): > 100 µM; TGI (EKVX NSCLC): > 100 µM; TGI (TK-10 renal): 75.4 µM; TGI (SNB-78 CNS): > 100 µM; TGI (UACC-257 melanoma): > 100 µM; TGI (HL-60(TB) leukemia): > 100 µM; TGI (SNB-19 CNS): > 100 µM; TGI (DMS 114 small cell lung): > 100 µM; TGI (RXF 393 renal): > 100 µM; TGI (M19-MEL melanoma): > 100 µM; TGI (KM12 colon): > 100 µM; TGI (IGROV1 ovarian): > 100 µM; TGI (MOLT-4 leukemia): > 100 µM; TGI (SK-OV-3 ovarian): > 100 µM; TGI (A549 NSCLC): > 100 µM; TGI (UO-31 renal): > 100 µM; TGI (SK-MEL-28 melanoma): > 100 µM; TGI (U251 CNS): > 100 µM; TGI (NCI-H23 lung): > 100 µM; TGI (A498 renal): > 100 µM; TGI (DMS 273 small cell lung): > 100 µM; TGI (OVCAR-5 ovarian): > 100 µM

— PubChem BioAssay (NCI)
